Patent US20170332627A1, “AGROCHEMICAL RESINATES FOR AGRICULTURAL APPLICATIONS” (priority 2014, published 2017)

What was measured:
[1] = Soil test (potting soil/sand, tap water) for release profile; assay type: physicochemical
Text: To further explore behavior of the IER-AAI complex in conditions found in the soil, a soil test was developed to mimic in-vivo conditions by mixing potting soil with sand, based on the understanding that most soil in the field is not of the same quality as premium potting soil, but instead typically contains more clay or sand. The samples run through the soil test were WG01, WG02, WG05-WG10.
In this experiment, potting soil was mixed with sand in a 19:31 ratio. Then the desired amount of IER-AAI complex (the amount of resin that would allow the total AAI to be 25 mg) was mixed homogenously in with the soil. The Buchner funnel was fitted with filter paper and the filter paper was wet with a little bit of tap water. The Buchner funnel was then placed in an Erlenmeyer flask with a side arm fitted with a rubber adaptor. The side arm was hooked up to a vacuum and the vacuum turned on. Next, the sand/soil/IER-AAI mixture was poured into the Buchner funnel. 10 mL of tap water was poured evenly over the sand/soil/IER-AAI mixture and flooding was observed. Once the water drained into the Erlenmeyer flask, the Buchner funnel was removed and the water transferred into a glass vial. The Buchner funnel was replaced back on the Erlenmeyer flask, the vacuum turned back on, and another 10 mL of tap water was poured evenly over the sand/soil/IER-AAI mixture. This process was repeated until 10×10 mL fractions were collected. Each fraction was then analyzed for UV absorbance at 200-400 nm using a ThermoScientific model Evolution 201, diluting samples when necessary. Comparing the absorbance values against a calibration curve, the amount of AAI in each fraction was calculated.
The percent loading and release profile for each AAI was obtained based on the protocols described in Examples 14 and 15 respectively, except that the AAI content was held constant at 20 mg instead of 25 mg.

[2] = Sand column test, release of chloramben with DI water then 2M NaOH; assay type: physicochemical; details: for release profile in sand column (FIG. 1): result in words
Text: To assess the extended release properties of our WDG and HSC formulations (prepared in accordance with Example 7) we employed a sand column method as described below, where the results of the sand column test can be extrapolated to represent in vivo soil conditions.
Sand column tests were run first with water and then with a 2M NaOH ionic solution. […] The rest of the sand column tests were then run with 2M NaOH; we selected the hydroxyl ion as a representative anion to illustrate the release of the AAI through ion exchange.
First, the sand to be used in the sand column was weighed out into a centrifuge tube. Then the sand was wetted with DI water until flowable and vortexed to mix. Next, the sand was introduced into a Lab-Crest Buret fitted with a Stopcock. DI water was then passed through the sand column to remove any sand that had stuck to the side of the buret. Excess water was drained, until the water level was just at the top of the sand. In a separate small centrifuge tube, the sand was mixed with the experimental sample, and this mixture was added to the top of the sand column. Chloramben control and samples formulated as WG01, WG02, and HSC01 (as described above) were tested.
For each Sample, the experiment was conducted as follows. […] 7×10 mL fractions were collected from the column in appropriately sized culture tubes at 10 mL fractions. The stopcock was closed as the water level reached the top of the sand. […] 7×10 mL fractions were collected in appropriately sized culture tubes. Each fraction was then analyzed for UV absorbance at 200-400 nm using a ThermoScientific model Evolution 201, diluting samples when necessary. Comparing the absorbance values against a calibration curve, the amount of AAI in each fraction was calculated.
The results of these experiments are shown in the graph in FIG. 1.
Fractions 1-7 were run with deionized water flushing through the column, while fractions 8-14 were run with 2 M NaOH flushing through the column. The arrow indicates where the changeover from DI water to NaOH occurred. […] Only when there was a counterion present for exchange (i.e. OH^− in the NaOH), did the chloramben in the test samples start to release more quickly.

[3] = dicamba, 20 mg total AAI, FIG. 6
[4] = gibberellic acid, 20 mg total AAI, FIG. 9
[5] = chloramben, 25 mg total AAI, 10x10 mL tap water, FIG. 4
[6] = control, no eluent named in head
[7] = whole run, DI water then 2M NaOH, same value under both heads
[8] = benzoic acid, 25 mg total AAI, 10x10 mL tap water, FIG. 2
[9] = benzoic acid, 25 mg total AAI, 10x10 mL tap water, FIG. 3
[10] = benzoic acid, 25 mg total AAI, HSC comparison, FIG. 5
[11] = nicosulfuron, 20 mg total AAI, FIG. 7
[12] = imidacloprid, 20 mg total AAI, FIG. 8

Compound: COc1c(Cl)ccc(Cl)c1C(=O)O [Dicamba Control, Dicamba]
- Percent Release [1, 3]: 100%
- Total AAI Released [1, 3]: 20 mg

Compound: C=C1C[C@]23C[C@@]1(O)CC[C@H]2[C@@]12C=C[C@H](O)[C@@](C)(C(=O)O1)[C@H]2[C@@H]3C(=O)O [GA Control, Gibberellic Acid]
- Percent Release [1, 4]: 99%
- Total AAI Released [1, 4]: 20 mg

Compound: Nc1cc(Cl)cc(C(=O)O)c1Cl [Chloramben Control, Chloramben]
- Percent Release [1, 5]: 71%
- Total AAI Released [1, 5]: 18 mg
- % chloramben released in first two fractions [2, 6]: 44%
- Total mg chloramben released [2, 6]: 20.92 mg
- release profile in sand column (FIG. 1) [2]: released more quickly
- release profile in sand column (FIG. 1) ([2]; listed as control chloramben powder): released very quickly
- % chloramben remaining [2, 7]: 30%
- % total chloramben released [2, 7]: 70%

Compound: O=C(O)c1ccccc1 [Benzoic Acid Control, Benzoic acid]
- Percent Released [1, 8]: 97%
- Total AAI Released [1, 8]: 24 mg
- Percent Release [1, 9]: 97%
- Total AAI Released [1, 9]: 24 mg
- Percent Release [1, 10]: 97%
- Total AAI Released [1, 10]: 24 mg

Compound: COc1cc(OC)nc(NC(=O)NS(=O)(=O)c2ncccc2C(=O)N(C)C)n1 [NSN Control, Nicosulfuron]
- Percent Release [1, 11]: 52%
- Total AAI Released [1, 11]: 10 mg

Compound: O=[N+]([O-])NC1=NCCN1Cc1ccc(Cl)nc1 [ICD Control, Imidacloprid]
- Percent Release [1, 12]: 98%
- Total AAI Released [1, 12]: 20 mg
